From patent publication US7897640B2 (priority 2003, dated 2011)
Marks after values point to notes of the source that are not given here.

Tests used:
[1] = tested on: duck hepatitis B virus (DHBV); assay: pharmacotherapy test in DHBV infected ducklings, serum DHBV-DNA dot-blot; format: in vivo, Beijing ducklings
solubility = format: physicochemical
[2] = tested on: AZT-resistant strain HIV-1 018c; details: PBMC, AZT-resistant HIV-1 018c
human T lymphocytes MT-4 = assay: cytotoxicity by MTT in MT-4 culture; details: MT-4 culture with HIV-1 IIIB, 96 hours
HIV-1 IIIB [3] = assay: HIV-1 P24 antigen inhibition in MT-4 culture; details: MT-4, HIV-1 IIIB
Protocol: MT-4 cell suspension was counted, then 100 μl of suspension (2×10^5 cells/ml) was seeded into 96-well cell culture plate, 50 μl liquor of 2× diluted medicament or 4-5× diluted positive medicament AZT (8 concentrations) was added, respectively, and 50 μl virus suspension with proper titer was add concurrently. Each dilution was repeated in 3 wells and cell control group and virus control group were established. They were incubated at 37° C., 5% CO2 saturated humidity incubator and the cytopathy was observed everyday. On the fourth day after administration (96 hours), the supernatants were sucked out and stored at −20° C. for measuring HIV-1-P24 antigen titer. Accordingly, the inhibition effect of medicament could be calculated, and the cells were dyed with MTT to measure the cytotoxicity.
The medicated cell supernatants infected with MT-4 were diluted after being thawed. HIV-1 P24 titer was measured according to the operation procedure described in HIV-1 P24 antigen kit.
[formula] 2.2.2 Reed & Muench Method for Calculating CC50 and EC50 of Medicament in Cell Culture
[formula] 2.2.3. Calculation Method of Selection Index (SI) of HIV-1 P24 Antigen in Cell Culture SI=CC50/EC50 3.

[4] = tested on: human peripheral blood mononuclear cell (PBMC); assay: cytotoxicity by MTT in HIV-infected PBMC culture; details: 96 hours
Protocol: 10 μl MTT dye (5 mg/ml) was added to each well, and then incubated at 37° C., 5% CO2 saturated humidity incubator for 4 hours. 100 μl 50% DMF-17% Triton X-100 destainer was added to each well and the mixtures were kept at 37° C. overnight. Then OD570nm values were measured at 570 nm with a luminometer to calculate the median cytotoxicity concentration of medicament (CC50).
The fresh normal human venous blood was taken and PBMC was separated using FiColl separation solution. The 1.5×10^5 cells/ml suspension prepared with the culture fluid containing PHA was seeded into the culture bottle and incubated in the incubator (37° C., 5% CO2) for 72 hours. The cells were collected with cell scrapers then were infected with the 10^−2 viral liquid of AZT-sensitive (018a) or AZT-resistant (018c) viral strain. After absorption for 2 hours, the non-absorbed viruses were washed with serum-free 1640 culture medium. The infected cells were prepared into 1×10^6 cells/ml with the culture fluid, and then were seeded into the 96-well culture board in 100 μl/well. At the same time, 100 μl liquor of 2× diluted AKJ-2 or 5× diluted positive control medicament AZT with different concentrations was added. The cell control group and virus control group were established. Four days (96 hours) after incubating under 37° C., 5% CO2, the supernatants were sucked out and stored at −20° C. to measure HIV-1-P24 antigen titer and calculate the inhibition effect of the medicament. The cells were dyed with MTT to measure the cytotoxicity.

[5] = tested on: AZT-sensitive strain HIV-1 018a; assay: HIV-1 P24 antigen inhibition in PBMC, AZT-sensitive strain; details: PBMC, AZT-sensitive HIV-1 018a
HIV-1 IIIB [6] = assay: HIV-1 P24 antigen inhibition in chronically infected H9 cells
Protocol: HIV-1 P24 antigen titer was measured according to the operation procedures stated in HIV-1 P24 antigen kit.
100 μl (2×10^5 cells/ml) of H9 cells suspension was seeded into 96-well cell culture plate. Then, 100 μl liquor of 2× diluted medicament or 4-5× diluted positive AZT (8 concentrations) was added. Each dilution was repeated in three wells. The cell control group was established. The cells were incubated in the incubator (37° C., 5% CO2, saturated humidity) and the cytopathy was observed everyday. Four days (96 hours) after administration, the supernatants were sucked out and stored at −20° C. to measure HIV-1-P24 antigen titer. The inhibition effect of the medicament was determined. The cells were dyed with MTT to measure the cytotoxicity.
2.2.2 Reed & Muench Method for Calculating CC50 and EC50 of Medicament in Cell Culture
Calculation Method of Selection Index (SI) of HIV-1 P24 Antigen in Cell Culture SI=CC50/EC50 3.

[7] = tested on: human T lymphocytes H9 chronically infected with HIV-1 IIIB; assay: cytotoxicity by MTT in H9 cells chronically infected with HIV-1 IIIB; details: H9 cell chronically infected with HIV-1 IIIB, 96 hours

CC(C)=CC[C@H](OC(=O)C=C(C)C)C1=CC(=O)c2c(O)ccc(O)c2C1=O [AKJ, β,β-dimethyl-acryl-alkannin]
Serum DHBV-DNA OD490 value (X ± SD) ([1]; Lot I, 25 mg/kg oral bid x 10 days, P3 (third day after cessation)): 0.792 ± 0.13
Serum DHBV-DNA level Inhibitory Rate (%) ([1]; Lot I, 25 mg/kg oral bid x 10 days, P3 vs T0): 5.43%
Serum DHBV-DNA OD490 value (X ± SD) ([1]; Lot I, 25 mg/kg oral bid x 10 days, T0 (day before administration)): 0.851 ± 0.15
Serum DHBV-DNA OD490 value (X ± SD) ([1]; Lot I, 25 mg/kg oral bid x 10 days, T5): 0.767 ± 0.18
Serum DHBV-DNA level Inhibitory Rate (%) ([1]; Lot I, 25 mg/kg oral bid x 10 days, T5 vs T0): 8.81%
Serum DHBV-DNA OD490 value (X ± SD) ([1]; Lot I, 25 mg/kg oral bid x 10 days, T10): 0.762 ± 0.15
Serum DHBV-DNA level Inhibitory Rate (%) ([1]; Lot I, 25 mg/kg oral bid x 10 days, T10 vs T0): 8.73%
Serum DHBV-DNA OD490 value (X ± SD) ([1]; Lot I, 50 mg/kg oral bid x 10 days, P3 (third day after cessation)): 0.696 ± 0.05
Serum DHBV-DNA level Inhibitory Rate (%) ([1]; Lot I, 50 mg/kg oral bid x 10 days, P3 vs T0): 32.39** %
Serum DHBV-DNA OD490 value (X ± SD) ([1]; Lot I, 50 mg/kg oral bid x 10 days, T0 (day before administration)): 1.082 ± 0.23
Serum DHBV-DNA OD490 value (X ± SD) ([1]; Lot I, 50 mg/kg oral bid x 10 days, T5): 0.961 ± 0.23
Serum DHBV-DNA level Inhibitory Rate (%) ([1]; Lot I, 50 mg/kg oral bid x 10 days, T5 vs T0): 9.16%
Serum DHBV-DNA OD490 value (X ± SD) ([1]; Lot I, 50 mg/kg oral bid x 10 days, T10): 0.680 ± 0.09
Serum DHBV-DNA level Inhibitory Rate (%) ([1]; Lot I, 50 mg/kg oral bid x 10 days, T10 vs T0): 33.56** %
Serum DHBV-DNA OD490 value (X ± SD) ([1]; Lot I, 100 mg/kg oral bid x 10 days, P3 (third day after cessation)): 0.667 ± 0.22
Serum DHBV-DNA level Inhibitory Rate (%) ([1]; Lot I, 100 mg/kg oral bid x 10 days, P3 vs T0): 44.91** %
Serum DHBV-DNA OD490 value (X ± SD) ([1]; Lot I, 100 mg/kg oral bid x 10 days, T0 (day before administration)): 1.207 ± 0.23
Serum DHBV-DNA OD490 value (X ± SD) ([1]; Lot I, 100 mg/kg oral bid x 10 days, T5): 0.987 ± 0.26
Serum DHBV-DNA level Inhibitory Rate (%) ([1]; Lot I, 100 mg/kg oral bid x 10 days, T5 vs T0): 17.86* %
Serum DHBV-DNA OD490 value (X ± SD) ([1]; Lot I, 100 mg/kg oral bid x 10 days, T10): 0.757 ± 0.19
Serum DHBV-DNA level Inhibitory Rate (%) ([1]; Lot I, 100 mg/kg oral bid x 10 days, T10 vs T0): 37.09** %
Serum DHBV-DNA OD490 value (X ± SD) ([1]; Lot II, 25 mg/kg oral bid x 10 days, P3 (third day after cessation)): 1.092 ± 0.13
Serum DHBV-DNA level Inhibitory Rate (%) ([1]; Lot II, 25 mg/kg oral bid x 10 days, P3 vs T0): −12.91%
Serum DHBV-DNA OD490 value (X ± SD) ([1]; Lot II, 25 mg/kg oral bid x 10 days, T0 (day before administration)): 1.005 ± 0.22
Serum DHBV-DNA OD490 value (X ± SD) ([1]; Lot II, 25 mg/kg oral bid x 10 days, T5): 1.061 ± 0.08
Serum DHBV-DNA level Inhibitory Rate (%) ([1]; Lot II, 25 mg/kg oral bid x 10 days, T5 vs T0): −8.66%
Serum DHBV-DNA OD490 value (X ± SD) ([1]; Lot II, 25 mg/kg oral bid x 10 days, T10): 0.928 ± 0.09
Serum DHBV-DNA level Inhibitory Rate (%) ([1]; Lot II, 25 mg/kg oral bid x 10 days, T10 vs T0): 5.67%
Serum DHBV-DNA OD490 value (X ± SD) ([1]; Lot II, 50 mg/kg oral bid x 10 days, P3 (third day after cessation)): 1.140 ± 0.25
Serum DHBV-DNA level Inhibitory Rate (%) ([1]; Lot II, 50 mg/kg oral bid x 10 days, P3 vs T0): 14.99%
Serum DHBV-DNA OD490 value (X ± SD) ([1]; Lot II, 50 mg/kg oral bid x 10 days, T0 (day before administration)): 1.375 ± 0.28
Serum DHBV-DNA OD490 value (X ± SD) ([1]; Lot II, 50 mg/kg oral bid x 10 days, T5): 1.075 ± 0.14
Serum DHBV-DNA level Inhibitory Rate (%) ([1]; Lot II, 50 mg/kg oral bid x 10 days, T5 vs T0): 20.22** %
Serum DHBV-DNA OD490 value (X ± SD) ([1]; Lot II, 50 mg/kg oral bid x 10 days, T10): 0.947 ± 0.13
Serum DHBV-DNA level Inhibitory Rate (%) ([1]; Lot II, 50 mg/kg oral bid x 10 days, T10 vs T0): 27.55* %
Serum DHBV-DNA OD490 value (X ± SD) ([1]; Lot II, 100 mg/kg oral bid x 10 days, P3 (third day after cessation)): 0.875 ± 0.17
Serum DHBV-DNA level Inhibitory Rate (%) ([1]; Lot II, 100 mg/kg oral bid x 10 days, P3 vs T0): 18.04* %
Serum DHBV-DNA OD490 value (X ± SD) ([1]; Lot II, 100 mg/kg oral bid x 10 days, T0 (day before administration)): 1.080 ± 0.21
Serum DHBV-DNA OD490 value (X ± SD) ([1]; Lot II, 100 mg/kg oral bid x 10 days, T5): 0.872 ± 0.13
Serum DHBV-DNA level Inhibitory Rate (%) ([1]; Lot II, 100 mg/kg oral bid x 10 days, T5 vs T0): 18.14** %
Serum DHBV-DNA OD490 value (X ± SD) ([1]; Lot II, 100 mg/kg oral bid x 10 days, T10): 0.670 ± 0.14
Serum DHBV-DNA level Inhibitory Rate (%) ([1]; Lot II, 100 mg/kg oral bid x 10 days, T10 vs T0): 36.65** %
Serum DHBV-DNA OD490 value (X ± SD) ([1]; Lot III, 25 mg/kg oral bid x 10 days, P3 (third day after cessation)): 1.035 ± 0.21
Serum DHBV-DNA level Inhibitory Rate (%) ([1]; Lot III, 25 mg/kg oral bid x 10 days, P3 vs T0): 16.14* %
Serum DHBV-DNA OD490 value (X ± SD) ([1]; Lot III, 25 mg/kg oral bid x 10 days, T0 (day before administration)): 1.263 ± 0.35
Serum DHBV-DNA OD490 value (X ± SD) ([1]; Lot III, 25 mg/kg oral bid x 10 days, T5): 1.079 ± 0.23
Serum DHBV-DNA level Inhibitory Rate (%) ([1]; Lot III, 25 mg/kg oral bid x 10 days, T5 vs T0): 11.66* %
Serum DHBV-DNA OD490 value (X ± SD) ([1]; Lot III, 25 mg/kg oral bid x 10 days, T10): 1.076 ± 0.16
Serum DHBV-DNA level Inhibitory Rate (%) ([1]; Lot III, 25 mg/kg oral bid x 10 days, T10 vs T0): 11.96* %
Serum DHBV-DNA OD490 value (X ± SD) ([1]; Lot III, 50 mg/kg oral bid x 10 days, P3 (third day after cessation)): 1.368 ± 0.11
Serum DHBV-DNA level Inhibitory Rate (%) ([1]; Lot III, 50 mg/kg oral bid x 10 days, P3 vs T0): 16.59** %
Serum DHBV-DNA OD490 value (X ± SD) ([1]; Lot III, 50 mg/kg oral bid x 10 days, T0 (day before administration)): 1.649 ± 0.13
Serum DHBV-DNA OD490 value (X ± SD) ([1]; Lot III, 50 mg/kg oral bid x 10 days, T5): 1.459 ± 0.28
Serum DHBV-DNA level Inhibitory Rate (%) ([1]; Lot III, 50 mg/kg oral bid x 10 days, T5 vs T0): 11.03* %
Serum DHBV-DNA OD490 value (X ± SD) ([1]; Lot III, 50 mg/kg oral bid x 10 days, T10): 1.411 ± 0.31
Serum DHBV-DNA level Inhibitory Rate (%) ([1]; Lot III, 50 mg/kg oral bid x 10 days, T10 vs T0): 13.00%
Serum DHBV-DNA OD490 value (X ± SD) ([1]; Lot III, 100 mg/kg oral bid x 10 days, P3 (third day after cessation)): 1.146 ± 0.56
Serum DHBV-DNA level Inhibitory Rate (%) ([1]; Lot III, 100 mg/kg oral bid x 10 days, P3 vs T0): 18.34%
Serum DHBV-DNA OD490 value (X ± SD) ([1]; Lot III, 100 mg/kg oral bid x 10 days, T0 (day before administration)): 1.474 ± 0.38
Serum DHBV-DNA OD490 value (X ± SD) ([1]; Lot III, 100 mg/kg oral bid x 10 days, T5): 1.351 ± 0.30
Serum DHBV-DNA level Inhibitory Rate (%) ([1]; Lot III, 100 mg/kg oral bid x 10 days, T5 vs T0): 2.76%
Serum DHBV-DNA OD490 value (X ± SD) ([1]; Lot III, 100 mg/kg oral bid x 10 days, T10): 1.046 ± 0.42
Serum DHBV-DNA level Inhibitory Rate (%) ([1]; Lot III, 100 mg/kg oral bid x 10 days, T10 vs T0): 28.41** %
solubility in DMSO (solubility; DMSO): soluble
solubility in water (solubility; water): insoluble
Selection index (CC50/EC50) [2]: 5.75 ± 0.67
Median effective concentration (EC50), HIV-1 P24 antigen ([2]; 96 hours): 0.97 ± 0.13 µg/mL
Median cytotoxicity concentration (CC50) (human T lymphocytes MT-4): 0.31 ± 0.04 µg/mL
Selection index (CC50/EC50) (HIV-1 IIIB [3]): 4.49 ± 0.94
Median effective concentration (EC50), HIV-1 P24 antigen (HIV-1 IIIB [3]; 96 hours): 0.07 ± 0.01 µg/mL
Median cytotoxicity concentration (CC50) ([4]; PBMC infected with AZT-resistant HIV-1 018c): 5.55 ± 0.136 µg/mL
Median cytotoxicity concentration (CC50) ([4]; PBMC infected with AZT-sensitive HIV-1 018a): 5.66 ± 0.28 µg/mL
Selection index (CC50/EC50) [5]: 5.12 ± 0.33
Median effective concentration (EC50), HIV-1 P24 antigen ([5]; 96 hours): 1.11 ± 0.11 µg/mL
Median effective concentration (EC50), HIV-1 P24 antigen (HIV-1 IIIB [6]; H9 cell chronically infected with HIV-1 IIIB, 96 hours): >0.25 ± 0 µg/mL
inhibition effect on HIV-1 IIIB chronically-infected H9 cells (HIV-1 IIIB [6]; two lots of tests): no inhibition effect
Median cytotoxicity concentration (CC50) [7]: 1.915 ± 0.09 µg/mL
